Measured values reported in patent US8026370B2, “Carboxylic acid derivative containing thiazole ring and pharmaceutical use thereof” (Mitsubishi Tanabe Pharma Corporation, priority 2004, dated 2011).
Where two headings read alike, the source gives them in different places.

Experiments:
normal rats = assay: Blood triglyceride (TG)-lowering action in normal rats; type: in vivo; settings: 0.3 mg/kg p.o. once a day for 4 days, normal male SD rats, non-fasting, blood TG vs vehicle group; for inhibition in vivo at 0.3 mg/kg: Rattus norvegicus, po, 96 h, read-out: hypotriglyceridemic rate (%, 0.3 mg/kg, p.o.)
Experimental: 1) Blood Triglyceride (TG)-Lowering Action in Normal Rats
7 to 9-week-old male SD rats (manufactured by SEAC Yoshitomi, Ltd.) were used for the test. A test compound and a control compound (GW-9578: J. Med. Chem. 1999, 42, 3785-3788) were dissolved or suspended in 1% ethanol, 0.05% Tween80 (final concentration), and 0.5% hydroxypropylmethyl cellulose (HPMC) was added to adjust to a given concentration. The prepared solution was orally administered once a day for 4 days. After administration for 4 days, blood samples were collected from the jugular vein under non-fasting condition and blood TG was measured by an enzyme method. The lowering rate was calculated by determining the rate of a value obtained by subtracting the average blood TG of a drug administration group from the average blood TG of a vehicle administration group, to the average blood TG of the vehicle administration group.

[1] = target: T1, Human Peroxisome Proliferator-Activated Receptor (PPAR)α (Homo sapiens, UniProt Q07869); assay: Transcription activation test for human PPARα (GAL4-hPPARαLBD luciferase reporter in CV-1 cells); type: cell-based; settings: firefly luciferase reporter, 24 hr with test compound in serum free medium, read-out: transactivation action (EC50, nmol/l)
T1 construct: expressed in transfected cells; host or cells: CV-1 cells (CCL-70)
T1 sequence (Q07869 239-466 limits assumed): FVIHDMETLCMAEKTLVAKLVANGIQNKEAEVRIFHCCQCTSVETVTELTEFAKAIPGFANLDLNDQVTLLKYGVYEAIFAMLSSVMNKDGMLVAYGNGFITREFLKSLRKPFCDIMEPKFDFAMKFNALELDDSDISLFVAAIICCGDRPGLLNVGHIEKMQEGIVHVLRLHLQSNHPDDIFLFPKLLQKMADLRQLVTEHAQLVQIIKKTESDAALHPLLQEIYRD
Text: Transcription Activation Test for Human Peroxisome Proliferator-Activated Receptor (PPAR)α
CV-1 cells (CCL-70, manufactured by Dainippon Pharma Co., Ltd.) cultured in Dulbecco's Modified Eagle Medium (DMEM) containing 10% fetal bovine serum (FBS) were transfected, using Lipofectamine 2000 (manufactured by Invitrogen), with pBIND vector (manufactured by Promega) a fusion that expresses protein (GAL4-hPPARαLBD, manufactured based on Diabetes 47: 1841-1847, 1998) of a DNA binding region of a yeast transcription factor (GAL4) and a human PPARα ligand binding region, and an internal standard renilla luciferase, and GAL4 responsive TK vector (manufactured by Promega) that expresses reporter firefly luciferase. 24 hr later, the medium was changed to a serum free medium containing a test compound, and the luciferase activity after 24 hr was measured.

[2] = system: high cholesterol diet-treated rat; assay: Influence on serum lipid of high cholesterol diet-treated rat; type: in vivo, male SD rats; settings: 0.3 mg/kg p.o. once a day for 5 days, high cholesterol diet rats, non-fasting; for inhibition in vivo at 0.3 mg/kg: Rattus norvegicus, po, 120 h
Experimental: 2) Influence on Serum Lipid of High Cholesterol Diet-Treated Rat
8-week-old male SD rats (manufactured by SEAC Yoshitomi, Ltd.) were raised on a standard diet CE-2 (manufactured by Japan Clea, Inc.) added with 1% cholesterol, 2% olive oil and 0.2% cholic acid, from one week before test compound administration to the last day of the administration. A test compound and a control compound (GW-9578) were dissolved or suspended in 1% ethanol, 0.05% Tween80 (final concentration), and 0.5% hydroxypropylmethyl cellulose (HPMC) was added to adjust to a given concentration. The prepared solution was orally administered once a day for 5 days. After administration for 5 days, blood samples were collected from the jugular vein under non-fasting condition and blood lipid was measured by an enzyme method. The lowering rate was calculated by determining the rate of a value obtained by subtracting the average blood TG (or average blood TC) of a drug administration group from the average blood triglyceride (TG) (or average blood total cholesterol (TC)) of a vehicle administration group, to the average blood TG (or average blood TC) of the vehicle administration group.

[3] = blood total cholesterol vs vehicle group, read-out: lowering rate (%, 0.3 mg/kg, p.o.) TC
[4] = blood triglyceride vs vehicle group, read-out: lowering rate (%, 0.3 mg/kg, p.o.) TG

With `CCc1cnc(N(C/C=C/c2ccccc2)CCc2csc(SC(C)(C)C(=O)O)n2)nc1` [Example 346, 2-{[4-(2-{(5-ethylpyrimidin-2-yl)[(2E)-3-phenylprop-2-en-1-yl]amino}ethyl)-1,3-thiazol-2-yl]thio}-2-methylpropionic acid] the inhibition in vivo at 0.3 mg/kg (normal rats) was 63%, the EC50 [1] was 13.6 nmol/L and the inhibition in vivo at 0.3 mg/kg [2, 3] was 31%. The inhibition in vivo at 0.3 mg/kg [2, 4] was 47%.

`CC(C)(Sc1nc(CCNc2cnc(-c3ccc(Cl)cc3)cn2)cs1)C(=O)O` [Example 226, 2-{[4-(2-{[5-(4-chlorophenyl)pyrazin-2-yl]amino}ethyl)-1,3-thiazol-2-yl]thio}-2-methylpropionic acid] was tested, and the inhibition in vivo at 0.3 mg/kg (normal rats) was 64%, the EC50 [1] was 16.5 nmol/L and the inhibition in vivo at 0.3 mg/kg [2, 3] was 38%. For the same compound, the inhibition in vivo at 0.3 mg/kg [2, 4] was 56%.

With `CC(C)(Sc1nc(CCNc2ncc(-c3ccc(OC(F)(F)F)cc3)cn2)cs1)C(=O)O` [Example 162, 2-methyl-2-({4-[2-({5-[4-(trifluoromethoxy)phenyl]pyrimidin-2-yl}amino)ethyl]-1,3-thiazol-2-yl}thio)propionic acid] the inhibition in vivo at 0.3 mg/kg (normal rats) was 65%, the EC50 [1] was 21 nmol/L and the inhibition in vivo at 0.3 mg/kg [2, 3] was 31%. It also gave an inhibition in vivo at 0.3 mg/kg [2, 4] of 48%.

In the case of `CCCCCCCN(CCc1csc(SC(C)(C)C(=O)O)n1)c1ncc(CC)cn1` [Example 265, 2-[(4-{2-[(5-ethylpyrimidin-2-yl)(heptyl)amino]ethyl}-1,3-thiazol-2-yl)thio]-2-methylpropionic acid], the inhibition in vivo at 0.3 mg/kg (normal rats) is reported as 69%, the EC50 [1] is reported as 7 nmol/L and the inhibition in vivo at 0.3 mg/kg [2, 3] is reported as 31%. The inhibition in vivo at 0.3 mg/kg [2, 4] was 63%.

Compound `CC(C)(Sc1nc(CCOc2ccc(-c3ccc(F)cc3)cc2)cs1)C(=O)O` [Example 34, 2-[(4-{2-[(4′-fluorobiphenyl-4-yl)oxy]ethyl}-1,3-thiazol-2-yl)thio]-2-methylpropionic acid] has an inhibition in vivo at 0.3 mg/kg (normal rats) of 62%, an EC50 [1] of 10.4 nmol/L and an inhibition in vivo at 0.3 mg/kg [2, 3] of 43%. It also gave an inhibition in vivo at 0.3 mg/kg [2, 4] of 45%.

For `CCCCCCCN(CCc1ccc(SC(C)(C)C(=O)O)cc1)C(=O)Nc1ccc(F)cc1F` [GW-9578, reference compound], the “hypotriglyceridemic rate (%, 0.3 mg/kg, p.o.)” value (normal rats) was 50-60%, the “lowering rate (%, 0.3 mg/kg, p.o.) TC” value ([2]; blood total cholesterol vs vehicle group) was 30-50% and the “lowering rate (%, 0.3 mg/kg, p.o.) TG” value ([2]; blood triglyceride vs vehicle group) was 30-50%.

Compound `CCCCCCCN(CCc1csc(SC(C)(C)C(=O)O)n1)c1ncc(N2CCOCC2)cn1` [Example 442, 2-[(4-{2-[heptyl(5-morpholin-4-ylpyrimidin-2-yl)amino]ethyl}-1,3-thiazol-2-yl)thio]-2-methylpropionic acid] has an inhibition in vivo at 0.3 mg/kg (normal rats) of 65%, an EC50 [1] of 5.5 nmol/L and an inhibition in vivo at 0.3 mg/kg [2, 3] of 38%. The inhibition in vivo at 0.3 mg/kg [2, 4] was 39%.

Work on `CC(C)(Sc1nc(CCOc2ccc(-c3ccc(F)cc3)cn2)cs1)C(=O)O` [Example 100] yielded an inhibition in vivo at 0.3 mg/kg (normal rats) of 61%, an EC50 [1] of 11.2 nmol/L and an inhibition in vivo at 0.3 mg/kg [2, 3] of 35%. It also gave an inhibition in vivo at 0.3 mg/kg [2, 4] of 38%.

In the case of `CC(C)(Sc1nc(CCNc2ccc(-c3ccc(C(F)(F)F)cc3F)nn2)cs1)C(=O)O` [Example 224, 2-({4-[2-({6-[2-fluoro-4-(trifluoromethyl)phenyl]pyridazin-3-yl}amino)ethyl]-1,3-thiazol-2-yl}thio)-2-methylpropionic acid], the inhibition in vivo at 0.3 mg/kg (normal rats) is reported as 63%, the EC50 [1] is reported as 29.7 nmol/L and the inhibition in vivo at 0.3 mg/kg [2, 3] is reported as 31%. For the same compound, the inhibition in vivo at 0.3 mg/kg [2, 4] was 57%.

In the case of `CCc1cnc(N(CCc2csc(SC(C)(C)C(=O)O)n2)Cc2cnn(-c3ccccc3)c2)nc1` [Example 326, 2-{[4-(2-{(5-ethylpyrimidin-2-yl)[(1-phenyl-1H-pyrazol-4-yl)methyl]amino}ethyl)-1,3-thiazol-2-yl]thio}-2-methylpropionic acid], the inhibition in vivo at 0.3 mg/kg (normal rats) is reported as 59%, the EC50 [1] is reported as 38.8 nmol/L and the inhibition in vivo at 0.3 mg/kg [2, 3] is reported as 31%. It also gave an inhibition in vivo at 0.3 mg/kg [2, 4] of 43%.
